Assay results taken from ChEMBL document CHEMBL1201862, “PubChem BioAssay data set” (2004).
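Following 48 hours of exposure in 96-well plates, responses at five concentrations were used to interpolate endpoints linearly. Abbreviation: GI50, concentration required for 50% inhibition of growth.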 The source made the active and inactive calls. Rule as the data show it: active = GI50 up to about 1.1 µM and inactive = higher.

What was measured:
Test in all cases: NCI tumour cell line growth inhibition, 48 h
T47D = tested on: T47D
DU-145 = tested on: DU-145
K562 = tested on: K562
SF-539 = tested on: SF-539
SK-OV-3 = tested on: SK-OV-3
OVCAR-3 = tested on: OVCAR-3
Malme-3M = tested on: Malme-3M
SNB-75 = tested on: SNB-75
NCI-H460 = tested on: NCI-H460
BT-549 = tested on: BT-549
MCF7 = tested on: MCF7
KM12 = tested on: KM12
HCT-15 = tested on: HCT-15
LOX IMVI = tested on: LOX IMVI
HCT-116 = tested on: HCT-116
U-251 = tested on: U-251
TK-10 = tested on: TK-10
HT-29 = tested on: HT-29
SN12C = tested on: SN12C
786-0 = tested on: 786-0

| Compound | GI50 (T47D) | GI50 (DU-145) | GI50 (K562) | GI50 (SF-539) | GI50 (SK-OV-3) | GI50 (OVCAR-3) | GI50 (Malme-3M) | GI50 (SNB-75) | GI50 (NCI-H460) | GI50 (BT-549) | GI50 (MCF7) | GI50 (KM12) | GI50 (HCT-15) | GI50 (LOX IMVI) | GI50 (HCT-116) | GI50 (U-251) | GI50 (TK-10) | GI50 (HT-29) | GI50 (SN12C) | GI50 (786-0) |
| --- | --- | --- | --- | --- | --- | --- | --- | --- | --- | --- | --- | --- | --- | --- | --- | --- | --- | --- | --- | --- |
| O=C(NNS(=O)(=O)c1ccccc1)c1cccnc1 | > 100 µM (inactive) | > 100 µM (inactive) | > 100 µM (inactive) | > 100 µM (inactive) | > 100 µM (inactive) | > 100 µM (inactive) | > 100 µM (inactive) | > 100 µM (inactive) | > 100 µM (inactive) | > 100 µM (inactive) | > 100 µM (inactive) | > 100 µM (inactive) | > 100 µM | > 100 µM (inactive) | > 100 µM (inactive) | > 100 µM (inactive) | > 100 µM (inactive) | > 100 µM (inactive) | > 100 µM (inactive) | > 100 µM (inactive) |
| COc1cc(C2c3cc4c(cc3OC(NNC(N)=O)C2C)OCO4)cc(OC)c1OC (configuration not stated) | > 66.4 µM (inactive) | 0.585 µM (active) | 0.0817 µM (active) | 0.0689 µM (active) | 1.36 µM (inactive) | 0.0902 µM (active) | 0.828 µM (active) | 0.18 µM (active) | 0.179 µM (active) | 2.03 µM (inactive) | 0.136 µM (active) | 0.107 µM (active) | 0.274 µM | 0.145 µM (active) | 0.13 µM (active) | 0.126 µM (active) | 34.7 µM (inactive) | 0.145 µM (active) | 0.404 µM (active) | 0.185 µM (active) |
| COC(=O)C1(Cc2ccc3c(c2)CCC3)Cc2cc3c(cc2C1=O)CCC3 (configuration not stated) | 10.8 µM (inactive) | 44.4 µM (inactive) | 8.93 µM (inactive) | > 46.5 µM (inactive) | > 46.5 µM (inactive) | 44.6 µM (inactive) | 41.5 µM (inactive) | 42.2 µM (inactive) | 15.3 µM (inactive) | 7.96 µM (inactive) | 21.4 µM (inactive) | 18 µM (inactive) | 26.5 µM | 25.1 µM (inactive) | 11.4 µM (inactive) | 29.4 µM (inactive) | > 46.5 µM (inactive) | 20.3 µM (inactive) | 26.9 µM (inactive) | > 46.5 µM (inactive) |
| CC1=NN2C(=N)/C(=C/c3ccc(F)cc3)C(=O)N=C2S1 | > 100 µM (inactive) | > 100 µM (inactive) | > 100 µM (inactive) | > 100 µM (inactive) | > 100 µM (inactive) | > 100 µM (inactive) | > 100 µM (inactive) | > 100 µM (inactive) | > 100 µM (inactive) | > 100 µM (inactive) | > 100 µM (inactive) | > 100 µM (inactive) | > 100 µM | > 100 µM (inactive) | > 100 µM (inactive) | > 100 µM (inactive) | > 100 µM (inactive) | > 100 µM (inactive) | > 100 µM (inactive) | > 100 µM (inactive) |
| C[C@]12CC/C(=N\O)C=C1CC[C@@H]1[C@@H]2CC[C@]2(C)C(=N/O)/C(=C/c3ccc([N+](=O)[O-])cc3)C[C@@H]12 | 1.05 µM (active) | 5.35 µM (inactive) | 3.37 µM (inactive) | 10.4 µM (inactive) | 15.5 µM (inactive) | 2.61 µM (inactive) | 15 µM (inactive) | 6 µM (inactive) | 44.8 µM (inactive) | 3.05 µM (inactive) | 3.59 µM (inactive) | 4.04 µM (inactive) | 3.44 µM | 5.11 µM (inactive) | 3.07 µM (inactive) | – | 6.41 µM (inactive) | 4.94 µM (inactive) | 4.27 µM (inactive) | 6.65 µM (inactive) |
| C=C[C@H]1CN2CCc3c([nH]c4c([C@@H]5CCCN5C)c(O)ccc34)[C@@H]2C[C@@H]1C[C@H]1c2[nH]c3ccccc3c2CCN1C | 1.95 µM (inactive) | 1.69 µM (inactive) | 0.211 µM (active) | 1.64 µM (inactive) | 1.7 µM (inactive) | 1.64 µM (inactive) | 1.85 µM (inactive) | 1.22 µM (inactive) | 1.39 µM (inactive) | 1.47 µM (inactive) | 1.96 µM (inactive) | 1.47 µM (inactive) | 1.28 µM | 1.39 µM (inactive) | 0.366 µM (active) | 1.38 µM (inactive) | 1.57 µM (inactive) | 1.28 µM (inactive) | 1.82 µM (inactive) | 1.4 µM (inactive) |
| CCOC(=O)N/N=C(/N)c1cccc(Br)c1 | > 100 µM (inactive) | > 100 µM (inactive) | > 100 µM (inactive) | > 100 µM (inactive) | > 100 µM (inactive) | > 100 µM (inactive) | > 100 µM (inactive) | > 100 µM (inactive) | > 100 µM (inactive) | > 100 µM (inactive) | > 100 µM (inactive) | > 100 µM (inactive) | > 100 µM | > 100 µM (inactive) | > 100 µM (inactive) | – | > 100 µM (inactive) | > 100 µM (inactive) | > 100 µM (inactive) | > 100 µM (inactive) |
| COc1ccc2c(c1)CCCN1Cc3ccccc3CC21 (configuration not stated) | 33.7 µM (inactive) | > 100 µM (inactive) | 31.3 µM (inactive) | 92.7 µM (inactive) | > 100 µM (inactive) | 52.7 µM (inactive) | 41.9 µM (inactive) | 44.7 µM (inactive) | 76 µM (inactive) | > 100 µM (inactive) | > 100 µM (inactive) | 65 µM (inactive) | > 100 µM | 43.5 µM (inactive) | 52.7 µM (inactive) | 75.2 µM (inactive) | > 100 µM (inactive) | 32.7 µM (inactive) | 64.1 µM (inactive) | 99.1 µM (inactive) |
| N#CCCCC[N+]12CN3CN(CN(C3)C1)C2 | > 100 µM (inactive) | > 100 µM (inactive) | > 100 µM (inactive) | 22.6 µM (inactive) | > 100 µM (inactive) | > 100 µM (inactive) | > 100 µM (inactive) | > 100 µM (inactive) | > 100 µM (inactive) | > 100 µM (inactive) | 45.7 µM (inactive) | > 100 µM (inactive) | > 100 µM | 32.1 µM (inactive) | > 100 µM (inactive) | > 100 µM (inactive) | > 100 µM (inactive) | > 100 µM (inactive) | > 100 µM (inactive) | > 100 µM (inactive) |
| Cc1ccc2nc3ccccc3c(C3C4C(=O)N(c5ccc(F)cc5)C(=O)C4ON3C(C(N)=O)c3ccccc3)c2c1 (configuration not stated) | 84.1 µM (inactive) | 59.3 µM (inactive) | 50.6 µM (inactive) | 27.6 µM (inactive) | 33.2 µM (inactive) | 26.7 µM (inactive) | 27.4 µM (inactive) | 76.9 µM (inactive) | 34.8 µM (inactive) | > 100 µM (inactive) | 23.4 µM (inactive) | 32.4 µM (inactive) | 27.2 µM | 24.5 µM (inactive) | 26.4 µM (inactive) | 29.4 µM (inactive) | 55.6 µM (inactive) | 26.1 µM (inactive) | 33 µM (inactive) | 37.9 µM (inactive) |
| CCOC(=O)C(NC(=O)c1ccccc1)(Nc1ccc(Cl)cc1C(F)(F)F)C(F)(F)F (configuration not stated) | 4.39 µM (inactive) | 12.9 µM (inactive) | 2.47 µM (inactive) | 5.71 µM (inactive) | 9.4 µM (inactive) | 3.57 µM (inactive) | 3.37 µM (inactive) | 2.29 µM (inactive) | > 20.5 µM (inactive) | 6.37 µM (inactive) | 4.83 µM (inactive) | 1.42 µM (inactive) | – | 5.33 µM (inactive) | 3.78 µM (inactive) | 3.74 µM (inactive) | 8.26 µM (inactive) | 2.15 µM (inactive) | 4.45 µM (inactive) | 8.95 µM (inactive) |
| NC(Cc1ccnnc1)C(=O)O (configuration not stated) | > 100 µM (inactive) | > 100 µM (inactive) | > 100 µM (inactive) | > 100 µM (inactive) | > 100 µM (inactive) | > 100 µM (inactive) | > 100 µM (inactive) | > 100 µM (inactive) | > 100 µM (inactive) | > 100 µM (inactive) | > 100 µM (inactive) | > 100 µM (inactive) | > 100 µM | > 100 µM (inactive) | > 100 µM (inactive) | > 100 µM (inactive) | > 100 µM (inactive) | > 100 µM (inactive) | > 100 µM (inactive) | > 100 µM (inactive) |
| CCOc1cc2c(cc1O)CC[C@@H]1[C@@H]2CC[C@]2(C)C(N)CC[C@@H]12 (some centres not stated) | 8.53 µM (inactive) | 2.36 µM (inactive) | 3.89 µM (inactive) | 2.36 µM (inactive) | 3.19 µM (inactive) | 0.811 µM (active) | 11.8 µM (inactive) | 2.1 µM (inactive) | 2.91 µM (inactive) | 11.2 µM (inactive) | 3.37 µM (inactive) | 1.58 µM (inactive) | 3.4 µM | 4.06 µM (inactive) | 3.05 µM (inactive) | 2.89 µM (inactive) | 9.2 µM (inactive) | 2.44 µM (inactive) | 4.09 µM (inactive) | 3.5 µM (inactive) |
| Nc1nc(Cl)c(C=O)c(NCC2(CO)CC(CCc3ccccc3)C2)n1 (configuration not stated) | 1.34 µM (inactive) | 14.8 µM (inactive) | 1.88 µM (inactive) | 12.4 µM (inactive) | 11.3 µM (inactive) | 11.3 µM (inactive) | 14.1 µM (inactive) | 18.7 µM (inactive) | 16.7 µM (inactive) | 12.1 µM (inactive) | 9.16 µM (inactive) | 13.7 µM (inactive) | 4.18 µM | 2.95 µM (inactive) | 13.7 µM (inactive) | 13.6 µM (inactive) | 15.2 µM (inactive) | 12.4 µM (inactive) | 6.15 µM (inactive) | 21 µM (inactive) |
